# How the values were obtained:
# hSERT = target: T1, hSERT (Homo sapiens, UniProt P31645); assay: hSERT membrane radioligand binding assay (3H-citalopram); settings: compound of Example 1 tested as TFA salt; read-out: SERT pKi (converted)
# T1 construct: expressed in transfected cells; host or cells: HEK-293 derived cell line, stably transfected; membranes
# Protocol: (§1) Membrane radioligand binding assays were used to measure competitive inhibition of labeled ligand (^3H-citalopram or ^3H-nisoxetine or ^3H-WIN35428) binding to membranes prepared from cells expressing the respective human recombinant transporter (hSERT or hNET or hDAT) in order to determine the pKi values of test compounds at the transporters.
# (§2) Recombinant human embryonic kidney (HEK-293) derived cell lines stably transfected with hSERT or hNET, respectively, were grown in DMEM medium supplemented with 10% dialyzed FBS (for hSERT) or FBS (for hNET), 100 μg/ml penicillin, 100 μg/ml streptomycin, 2 mM L-glutamine and 250 μg/ml of the aminoglycoside antibiotic G418, in a 5% CO2 humidified incubator at 37° C. When cultures reached 80% confluence, the cells were washed thoroughly in PBS (without Ca^2+ and Mg^2+) and lifted with 5 mM EDTA in PBS. […] Protein concentration of the membrane suspension was determined using a Bio-Rad Bradford Protein Assay kit. […]
# (§3) Following a 60 minute incubation at 22° C. […] Plates were dried overnight at room temperature, ˜45 μl of MicroScint™-20 (Perkin Elmer) added and bound radioactivity quantitated via liquid scintillation spectroscopy. Competitive inhibition curves and saturation isotherms were analyzed using GraphPad Prism Software package (GraphPad Software, Inc., San Diego, CA). […]
# hNET = target: T2, hNET (Homo sapiens, UniProt P23975); assay: hNET membrane radioligand binding assay (3H-nisoxetine); settings: compound of Example 1 tested as TFA salt; read-out: NET pKi (converted)
# T2 construct: expressed in transfected cells; host or cells: HEK-293 derived cell line, stably transfected; membranes
# Protocol: as §1, §2, §3
# [1] = Thermal analysis by differential scanning calorimetry (DSC); type: physicochemical; settings: heating ramp 10° C./min from 22° C. to 250° C.
# Protocol: Differential scanning calorimetry (DSC) was performed using a TA Instruments Model Q-100 module with a Thermal Analyst controller. Data were collected and analyzed using TA Instruments Thermal Solutions software. A 2.8 mg sample of the crystalline hydrochloride salt of Example 2 was accurately weighed into a covered aluminum pan. After a 5 minute isothermal equilibration period at 22° C., the sample was heated using a linear heating ramp of 10° C./min from 22° C. to 250° C.
# T1 sequence (P31645 whole entry): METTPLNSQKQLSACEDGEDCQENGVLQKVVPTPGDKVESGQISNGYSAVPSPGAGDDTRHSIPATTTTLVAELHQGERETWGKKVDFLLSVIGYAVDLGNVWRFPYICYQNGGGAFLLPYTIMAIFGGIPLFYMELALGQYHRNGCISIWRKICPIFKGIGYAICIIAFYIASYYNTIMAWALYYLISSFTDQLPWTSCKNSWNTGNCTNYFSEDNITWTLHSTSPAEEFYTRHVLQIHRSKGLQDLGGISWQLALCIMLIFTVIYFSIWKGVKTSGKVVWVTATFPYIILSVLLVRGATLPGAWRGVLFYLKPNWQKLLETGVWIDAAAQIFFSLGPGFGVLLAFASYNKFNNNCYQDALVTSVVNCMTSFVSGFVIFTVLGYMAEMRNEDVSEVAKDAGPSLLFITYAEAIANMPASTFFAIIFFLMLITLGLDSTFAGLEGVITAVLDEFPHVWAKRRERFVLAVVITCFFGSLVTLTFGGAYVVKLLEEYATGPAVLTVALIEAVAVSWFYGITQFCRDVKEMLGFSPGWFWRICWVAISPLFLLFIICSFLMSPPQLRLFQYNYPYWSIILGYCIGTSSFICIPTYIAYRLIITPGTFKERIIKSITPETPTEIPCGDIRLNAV
# T2 sequence (P23975 whole entry): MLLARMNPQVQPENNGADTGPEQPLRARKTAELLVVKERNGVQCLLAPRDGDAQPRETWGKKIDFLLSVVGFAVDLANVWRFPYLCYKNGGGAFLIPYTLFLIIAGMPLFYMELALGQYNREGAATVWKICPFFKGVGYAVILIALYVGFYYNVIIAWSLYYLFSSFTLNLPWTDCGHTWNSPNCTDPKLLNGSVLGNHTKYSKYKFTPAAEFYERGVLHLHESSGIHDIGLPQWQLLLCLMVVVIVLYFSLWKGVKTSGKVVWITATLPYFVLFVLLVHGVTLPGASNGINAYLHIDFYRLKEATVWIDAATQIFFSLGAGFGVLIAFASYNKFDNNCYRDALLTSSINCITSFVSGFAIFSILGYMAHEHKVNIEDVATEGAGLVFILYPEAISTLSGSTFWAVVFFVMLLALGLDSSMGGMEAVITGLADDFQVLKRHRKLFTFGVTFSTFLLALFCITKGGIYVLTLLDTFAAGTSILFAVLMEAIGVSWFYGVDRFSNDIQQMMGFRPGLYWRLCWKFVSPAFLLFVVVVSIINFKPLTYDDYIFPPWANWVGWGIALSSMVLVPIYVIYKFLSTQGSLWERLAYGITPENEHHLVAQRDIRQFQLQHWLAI
smiles,measurement,setting,value
"Fc1cc(F)c(OCc2ccccc2C2CCNCC2)c(F)c1 [Example 1, 4-[2-(2,4,6-Trifluorophenoxymethyl)phenyl]piperidine]",Ki,hSERT,≤ 12.6 nM
same,Ki,hNET,≤ 10 nM
same,thermal stability (thermal decomposition by DSC),[1],no thermal decomposition below 200.0 °C

# From US12239638B2, “Crystalline form of a 4-[2-(2-fluorophenoxymethyl)phenyl]piperidine compound” (THERAVANCE BIOPHARMA R&D IP, LLC, priority 2008, dated 2025)
